Laboratory results published in US9518060B2, “Substituted pyrrolo[3,4-c]pyrazoles as PKC kinase inhibitors” (PFIZER INC., priority 2007, dated 2016).
pKi: −log10 of the molar value.

Molecular target: Protein Kinase C beta 2 (PKCβII) (Homo sapiens (Human), UniProt P05771)
Test: PKCβII coupled spectrophotometric kinase assay (PK/LDH, NADH absorbance at 340 nm)
Format: biochemical
Settings: apparent Ki, ATP competitive inhibition model (Morrison equation); 0.1 mM ATP, 5 nM PKC, 30° C.; read-out: Ki app
Outline: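 PK/LDH-coupled ADP detection (NADH loss at 340 nm), 20 min at 30° C, pH 7.4; 5 nM PKCβII, 0.15 mM pseudosubstrate peptide, 0.1 mM ATP, with CaCl2, PS and PMA activators, 7.5% DMSO. Apparent Ki from initial velocities fitted to ATP-competitive Morrison model over 10,000–0.169 nM inhibitor.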

Protein Kinase C beta 2 (PKCβII), sequence (P05771 other isoform, or with tags, fused parts or gaps): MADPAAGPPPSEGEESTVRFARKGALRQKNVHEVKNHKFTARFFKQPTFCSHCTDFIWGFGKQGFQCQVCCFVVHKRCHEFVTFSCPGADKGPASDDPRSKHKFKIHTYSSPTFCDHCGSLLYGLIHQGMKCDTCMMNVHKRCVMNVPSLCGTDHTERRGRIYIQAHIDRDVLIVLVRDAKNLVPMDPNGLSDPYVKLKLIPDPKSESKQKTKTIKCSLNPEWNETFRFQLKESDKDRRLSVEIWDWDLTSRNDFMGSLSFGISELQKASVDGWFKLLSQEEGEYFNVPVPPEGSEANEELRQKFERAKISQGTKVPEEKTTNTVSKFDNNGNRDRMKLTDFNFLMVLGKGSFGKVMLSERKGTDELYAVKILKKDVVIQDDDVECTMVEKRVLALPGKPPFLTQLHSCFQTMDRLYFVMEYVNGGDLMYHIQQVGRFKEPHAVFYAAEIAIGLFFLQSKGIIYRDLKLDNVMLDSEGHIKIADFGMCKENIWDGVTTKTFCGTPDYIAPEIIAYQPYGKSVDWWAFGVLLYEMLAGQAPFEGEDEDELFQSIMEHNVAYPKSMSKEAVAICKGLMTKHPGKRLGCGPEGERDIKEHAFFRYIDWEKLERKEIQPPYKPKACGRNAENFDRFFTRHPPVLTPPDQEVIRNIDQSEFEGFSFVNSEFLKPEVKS

SMILES | pKi
Cc1ncc(F)c(Nc2n[nH]c3c2CN(C(=O)N2CC(CCO)N(C)C[C@@H]2C)C3(C)C)n1 (single isomer, unassigned) [Example H10] | 6.74
Cc1ncc(F)c(Nc2n[nH]c3c2CN(C(=O)N2CC(C)(C)N(C)C[C@@H]2C)C3(C)C)n1 [Example H3, N-(5-fluoro-2-methylpyrimidin-4-yl)-6,6-dimethyl-5-{[(2S)-2,4,5,5-tetramethylpiperazin-1-yl]carbonyl}-1,4,5,6-tetrahydropyrrolo[3,4-c]pyrazol-3-amine] | 8.14
CCc1ncc(F)c(Nc2n[nH]c3c2CN(C(=O)N2C[C@@H](C)N(CCCOC)C[C@@H]2C)C3(C)C)n1 [Example E2, N-(2-ethyl-5-fluoropyrimidin-4-yl)-5-{[(2S,5R)-4-(3-methoxypropyl)-2,5-dimethylpiperazin-1-yl]carbonyl}-6,6-dimethyl-1,4,5,6-tetrahydropyrrolo[3,4-c]pyrazol-3-amine] | 8.79
Cc1ncc(F)c(Nc2n[nH]c3c2CN(C(=O)N2CC(CCO)N(C)C[C@@H]2C)C3(C)C)n1 (single isomer, unassigned) [Example H9] | 7.24
CCc1ncc(F)c(Nc2n[nH]c3c2CN(C(=O)N2CC(CCO)N(C)C[C@@H]2C)C3(C)C)n1 (stereo partly drawn) [Example E5, 2-((5S)-4-{[3-[(2-ethyl-5-fluoropyrimidin-4-yl)amino]-6,6-dimethyl-4,6-dihydropyrrolo[3,4-c]pyrazol-5(1H)-yl]carbonyl}-1,5-dimethylpiperazin-2-yl)ethanol] | > 8.00
CNc1ncc(F)c(Nc2n[nH]c3c2CN(C(=O)N2CC(C)(C)N(C)C[C@@H]2C)C3(C)C)n1 [Example A6, N^4-(6,6-dimethyl-5-{[(2S)-2,4,5,5-tetramethylpiperazin-1-yl]carbonyl}-1,4,5,6-, tetrahydropyrrolo[3,4-c]pyrazol-3-yl)-5-fluoro-N^2-methylpyrimidine-2,4-diamine] | 7.97
CCc1ncc(F)c(Nc2n[nH]c3c2CN(C(=O)N2CC(C)(C)N(C)C[C@@H]2C)C3(C)C)n1 [Example D1, N-(2-ethyl-5-fluoropyrimidin-4-yl)-6,6-dimethyl-5-{[(2S)-2,4,5,5-tetramethylpiperazin-1-yl]carbonyl}-1,4,5,6-tetrahydropyrrolo[3,4-c]pyrazol-3-amine] | 8.27
CCNc1ncc(F)c(Nc2n[nH]c3c2CN(C(=O)N2C[C@@H](C)N(CCC(F)(F)F)C[C@@H]2C)C3(C)C)n1 [Example B5, N4-(5-{[(2S,5R)-2,5-dimethyl-4-(3,3,3-trifluoropropyl)piperazin-1-yl]carbonyl}-6,6-dimethyl-1,4,5,6-tetrahydropyrrolo[3,4-c]pyrazol-3-yl)-N2-ethyl-5-fluoropyrimidine-2,4-diamine] | 7.53

Results, then the compound that gave them:

pKi | SMILES
7.26 | COc1ncc(F)c(Nc2n[nH]c3c2CN(C(=O)N2CC(CCO)N(C)C[C@@H]2C)C3(C)C)n1 (single isomer, unassigned) [Example K26]
6.77 | COCCOc1ncc(F)c(Nc2n[nH]c3c2CN(C(=O)C2(F)CCN(C)CC2)C3(C)C)n1 [Example L2, N-[5-fluoro-2-(2-methoxyethoxy)pyrimidin-4-yl]-5-[(4-fluoro-1-methylpiperidin-4-yl)carbonyl]-6,6-dimethyl-1,4,5,6-tetrahydropyrrolo[3,4-c]pyrazol-3-amine]
7.59 | CCOc1ncc(F)c(Nc2n[nH]c3c2CN(C(=O)N2C[C@@H]4CCCN4C[C@@H]2C(C)C)C3(C)C)n1 [Example K20, N-(2-ethoxy-5-fluoropyrimidin-4-yl)-5-{[(3S,8aS)-3-isopropylhexahydropyrrolo[1,2-a]pyrazin-2(1H)-yl]carbonyl}-6,6-dimethyl-1,4,5,6-tetrahydropyrrolo[3,4-c]pyrazol-3-amine]
7.72 | CCN1C[C@H](C)N(C(=O)N2Cc3c(Nc4nc(C)ncc4F)n[nH]c3C2(C)C)C[C@H]1C [AA2, 5-{[(2S,5R)-4-ethyl-2,5-dimethylpiperazin-1-yl]carbonyl}-N-(5-fluoro-2-methylpyrimidin-4-yl)-6,6-dimethyl-1,4,5,6-tetrahydropyrrolo[3,4-c]pyrazol-3-amine]
7.49 | Cc1cccc(Nc2n[nH]c3c2CN(C(=O)N2C[C@@H](C)N(C)C[C@@H]2C)C3(C)C)n1 [Example J8, 6,6-dimethyl-N-(6-methylpyridin-2-yl)-5-{[(2S,5R)-2,4,5-trimethylpiperazin-1-yl]carbonyl}-1,4,5,6-tetrahydropyrrolo[3,4-c]pyrazol-3-amine]
8.19 | Cc1ccc(F)c(Nc2n[nH]c3c2CN(C(=O)N2C[C@@H]4CCCN4C[C@@H]2C)C3(C)C)n1 [Example J5, N-(3-fluoro-6-methylpyridin-2-yl)-6,6-dimethyl-5-{[(3S,8aS)-3-methylhexahydropyrrolo[1,2-a]pyrazin-2(1H)-yl]carbonyl}-1,4,5,6-tetrahydropyrrolo[3,4-c]pyrazol-3-amine]
7.83 | CCN1C[C@H](C)N(C(=O)N2Cc3c(Nc4nc(C)nc(C)c4F)n[nH]c3C2(C)C)C[C@H]1C [AA3, 5-{[(2S,5R)-4-ethyl-2,5-dimethylpiperazin-1-yl]carbonyl}-N-(5-fluoro-2,6-dimethylpyrimidin-4-yl)-6,6-dimethyl-1,4,5,6-tetrahydropyrrolo[3,4-c]pyrazol-3-amine]
7.55 | COCCCOc1ncc(F)c(Nc2n[nH]c3c2CN(C(=O)N2C[C@@H](C)N(C)C[C@@H]2C)C3(C)C)n1 [Example K10, N-[5-fluoro-2-(3-methoxypropoxy)pyrimidin-4-yl]-6,6-dimethyl-5-{[(2S,5R)-2,4,5-trimethylpiperazin-1-yl]carbonyl}-1,4,5,6-tetrahydropyrrolo[3,4-c]pyrazol-3-amine]
6.89 | CCOc1ncc(F)c(Nc2n[nH]c3c2CN(C(=O)C2CCN(CCC(F)(F)F)CC2)C3(C)C)n1 [Example L5, N-(2-ethoxy-5-fluoropyrimidin-4-yl)-6,6-dimethyl-5-{[1-(3,3,3-trifluoropropyl)piperidin-4-yl]carbonyl}-1,4,5,6-tetrahydropyrrolo[3,4-c]pyrazol-3-amine]
9.17 | CCOc1ncc(F)c(Nc2n[nH]c3c2CN(C(=O)N2C[C@@H](C)N(CCCOC)C[C@@H]2C)C3(C)C)n1 [Example K5]
7.89 | COCCCOc1ncc(F)c(Nc2n[nH]c3c2CN(C(=O)N2CC(C)(C)N(C)C[C@@H]2C)C3(C)C)n1 [Example K9, N-[5-fluoro-2-(3-methoxypropoxy)pyrimidin-4-yl]-6,6-dimethyl-5-{[(2S)-2,4,5,5-tetramethylpiperazin-1-yl]carbonyl}-1,4,5,6-tetrahydropyrrolo[3,4-c]pyrazol-3-amine]
7.58 | CCOc1ncc(F)c(Nc2n[nH]c3c2CN(C(=O)N2C[C@H](C)N(C)C[C@@H]2C)C3(C)C)n1 [Example K13, 2(S),5(S)-{[dimethyl-4-methylpiperazin-1-yl]carbonyl}-N-(5-fluoro-2-ethoxypyrimidin-4-yl)-6,6-dimethyl-1,4,5,6-tetrahydropyrrolo[3,4-c]pyrazol-3-amine]
7.54 | Cc1ncc(F)c(Nc2n[nH]c3c2CN(C(=O)N2C[C@@H](C)N(CCCO)C[C@@H]2C)C3(C)C)n1 (stereo in doubt) [AA5, [3-(5-fluoro-2-methyl-pyrimidin-4-ylamino)-6,6-dimethyl-4,6-dihydro-1H-pyrrolo[3,4-c]pyrazol-5-yl]-[4-(3-hydroxy-propyl)-2,5-dimethyl-piperazin-1-yl]-methanone]
